In paper PMC5641942 (Physiological Reports, 2017):
“Also recorded” adds a separate entry of the source. Where two headings read alike, the source gives them in different places. Each block holds one compound with its values, some of them ahead of it.

How the values were obtained:
PAT1 [1] = target: T1, PAT1 (Homo sapiens, UniProt Q7Z2H8); conditions: donor pH 6.0, 100 μmol/L taurine, 20 mg/mL test substance
PAT1 [2] = target: T1, PAT1; conditions: pH 6.0, 100 μmol/L taurine
Experimental: (§5) After the 5 min incubation, the isotope‐containing buffer solution was removed and the wells were washed three times with 500 μL ice‐cold HEPES‐buffer, pH 7.4. The cells were detached using 200 μL of 0.1% Triton X‐100, and transferred to scintillation plastic vials and 2 mL of scintillation cocktail was added.

TauT [3] = target: T2, TauT (Homo sapiens, UniProt P31641); conditions: pH 7.4/7.4, 0.052 μmol/L taurine, 20 mg/mL test substance
T2 sequence (P31641 1-620): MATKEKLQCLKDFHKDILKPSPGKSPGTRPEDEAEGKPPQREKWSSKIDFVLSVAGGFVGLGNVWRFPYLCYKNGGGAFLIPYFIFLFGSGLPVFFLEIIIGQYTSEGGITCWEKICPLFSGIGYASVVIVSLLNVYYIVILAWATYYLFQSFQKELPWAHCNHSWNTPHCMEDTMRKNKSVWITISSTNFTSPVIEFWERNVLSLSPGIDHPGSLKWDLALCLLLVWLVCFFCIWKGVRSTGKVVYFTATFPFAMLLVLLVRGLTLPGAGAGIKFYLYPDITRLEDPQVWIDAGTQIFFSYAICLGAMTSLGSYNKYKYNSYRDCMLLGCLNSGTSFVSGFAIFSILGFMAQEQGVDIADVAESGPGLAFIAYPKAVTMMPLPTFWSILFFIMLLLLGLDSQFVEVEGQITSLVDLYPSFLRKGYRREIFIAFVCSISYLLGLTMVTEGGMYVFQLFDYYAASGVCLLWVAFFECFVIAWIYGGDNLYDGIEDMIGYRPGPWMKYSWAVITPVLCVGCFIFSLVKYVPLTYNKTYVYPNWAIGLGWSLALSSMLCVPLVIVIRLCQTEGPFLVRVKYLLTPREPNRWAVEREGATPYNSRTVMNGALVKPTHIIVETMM

PAT1 [4] = target: T3, PAT1 (Rattus norvegicus, UniProt Q924A5); assay: Oral taurine pharmacokinetics with co-administered BCH or Pro and Sar; assay type: in vivo, male Sprague-Dawley rats; conditions: oral 30 mg/kg taurine, 200 mg/kg BCH
T3 construct: tissue Charles River Deutschland; host or cells: intestine of living male Sprague-Dawley rats (oral dosing)
Experimental: (§1) The pH was adjusted with NaOH or HCl to 7.40 ± 0.05.
(§2) The animals were acclimatized for a minimum of 5 days in groups of two and maintained on standard feed with free access to water. Prior to dosing, the animals were fasted for 16–20 h with free access to water.
(§3) Plasma was harvested immediately by 10 min of centrifugation at 4°C, 3600g (Multifuge 1 S‐R, Heraeus, Hanau, Germany) and stored in polypropylene tubes (Pony Vial, PerkinElmer, Waltham, MA, USA) at −20°C until analysed. At the end of the experiment, animals were sacrificed by spinal dislocation using a guillotine. Plasma samples were left to defrost and mixed with 4 mL of liquid scintillation cocktail. The samples were counted for 3 min on a scintillation counter from Tri‐Carb 2900TR.
Based on this V d1, volume of distribution in the central compartment 1; V d2, volume of distribution in the peripheral compartment 2; AUC, area under the curve; and K10, the elimination rate from the central department, were calculated using Phoenix® 6.3 version (Pharsight Corporation, A Certara Company, USA). […] C max and t max were found as mean values of the plasma concentration profiles within each group. […] The total clearance was calculated as dose divided by AUC.

TauT [5] = target: T2, TauT; assay: Taurine (52 nmol/L) uptake in Caco-2 cells at pH 7.4 in the presence of amino acids; assay type: cell-based; design: endogenous in cells; host or cells: Caco-2; conditions: pH 7.4, 0.052 μmol/L taurine
Excerpt: […]. […] […].

PAT1 and TauT = assay: Taurine (52 nmol/L) uptake in Caco-2 cells at pH 6.0 in the presence of amino acids; assay type: cell-based, human; conditions: pH 6.0, 0.052 μmol/L taurine
Experimental: as §5

TauT [6] = target: T2, TauT; assay: Concentration-dependent taurine uptake in Caco-2 cells at pH 7.4; assay type: in vitro ADME; design: endogenous in cells; host or cells: Caco-2; conditions: for K m of saturable taurine uptake: Caco-2, pH 7.4, 0.052–100 μmol/L taurine, 5 min
Experimental: Polycarbonate membranes (1.12 cm^2, 0.4 μm pore size) of TranswellTM inserts or 24-well cell culture plates (1.90 cm^2) were used as supports for cell cultivation. […] Experiments were performed 6 days after seeding the Caco-2 cells cultured on 24 wells plates or performed 13-15 days postseeding cells on TranswellTM insert. […] The culture medium was changed every 2-3 days. […] HBSS buffer consisted of in mM: […] KCl, 5.33; […] NaCl, 138; […] Nohr et al. 2014b).

[7] = Oral taurine pharmacokinetics in rats; assay type: in vivo; conditions: male, Sprague-Dawley, rat, plasma, median [Q1, Q3]
[8] = Intravenous taurine pharmacokinetics in rats; assay type: in vivo, male Sprague-Dawley rats; conditions: for A / B / α / β: two-compartment model; for clearance / AUC(0-inf): male, Sprague-Dawley, rat, plasma; for clearance: iv
Experimental: as §1, §2, §3
(§4) Based on this V d1, volume of distribution in the central compartment 1; V d2, volume of distribution in the peripheral compartment 2; AUC, area under the curve; and K10, the elimination rate from the central department, were calculated using Phoenix® 6.3 version (Pharsight Corporation, A Certara Company, USA). […] C max and t max were found as mean values of the plasma concentration profiles within each group. Area under the plasma concentration versus time profiles (AUC), an expression of total exposure, were determined with noncompartmental analysis using the linear trapezoidal rule from time zero to C max and by log linear methods from C max to the last measured plasma concentration and denoted AUC0‐tlast, k e is the first order elimination rate constant calculated as the slope from the terminal log plasma concentration time curve of individual animals. The total clearance was calculated as dose divided by AUC.

[9] = design: method as in Sved et al. (2007); conditions: male Sprague-Dawley rats, ref Sved et al. (2007), cited from earlier work
TauT [10] = target: T2, TauT; conditions: pH 6.0, 52 nmol/L taurine
[11] = Oral taurine pharmacokinetics in rats; assay type: in vivo, male Sprague-Dawley rats; conditions: for AUC: read-out: AUC0‐tlast (converted); for k el: read-out: k e (converted)
Experimental: as §1, §2, §3, §4

[12] = design: method as in Yu et al. 2013; conditions: beagle dogs, noncompartmental analysis; ref Yu et al. 2013; cited from earlier work
[13] = male, Sprague-Dawley, rat, plasma, oral 10 mg/kg
[14] = male, Sprague-Dawley, rat, plasma, oral 30 mg/kg
[15] = male, Sprague-Dawley, rat, plasma, oral 100 mg/kg
[16] = male, Sprague-Dawley, rat, plasma, oral 299 mg/kg
[17] = male, Sprague-Dawley, rat, plasma, oral 997 mg/kg

T1 sequence (Q7Z2H8 whole entry): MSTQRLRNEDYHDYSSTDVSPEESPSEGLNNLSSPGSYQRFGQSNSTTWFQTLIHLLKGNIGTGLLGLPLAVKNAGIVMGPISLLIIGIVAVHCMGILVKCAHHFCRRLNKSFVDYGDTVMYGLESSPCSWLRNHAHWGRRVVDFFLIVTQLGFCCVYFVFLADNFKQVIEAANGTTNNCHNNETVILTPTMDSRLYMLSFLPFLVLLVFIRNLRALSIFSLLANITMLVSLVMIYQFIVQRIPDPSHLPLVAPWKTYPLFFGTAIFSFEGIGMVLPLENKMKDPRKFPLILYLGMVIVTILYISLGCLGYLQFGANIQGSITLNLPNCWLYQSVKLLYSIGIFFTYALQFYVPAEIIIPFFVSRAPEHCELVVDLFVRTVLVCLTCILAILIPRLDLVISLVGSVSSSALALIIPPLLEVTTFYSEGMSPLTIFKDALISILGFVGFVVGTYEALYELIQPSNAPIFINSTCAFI
T3 sequence (Q924A5 whole entry): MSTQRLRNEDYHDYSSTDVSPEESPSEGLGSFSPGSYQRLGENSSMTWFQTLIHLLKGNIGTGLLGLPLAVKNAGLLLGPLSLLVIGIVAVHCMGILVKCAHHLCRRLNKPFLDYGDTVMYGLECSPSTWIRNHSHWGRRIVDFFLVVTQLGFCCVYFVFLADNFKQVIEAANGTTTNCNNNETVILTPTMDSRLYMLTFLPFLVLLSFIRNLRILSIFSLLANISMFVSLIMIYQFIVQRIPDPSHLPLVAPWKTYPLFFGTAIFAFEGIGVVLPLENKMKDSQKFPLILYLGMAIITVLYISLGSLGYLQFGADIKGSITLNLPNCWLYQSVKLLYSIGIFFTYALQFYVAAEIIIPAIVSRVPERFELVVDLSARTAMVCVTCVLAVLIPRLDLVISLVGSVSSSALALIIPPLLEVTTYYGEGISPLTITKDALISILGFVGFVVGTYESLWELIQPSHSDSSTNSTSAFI

effect on absorptive (A-B) permeability of taurine (PAT1 [1]): did not alter | effect on taurine uptake (PAT1 [2]; 10 mmol/L test substance): not affected significantly | effect on taurine uptake (PAT1 [2]; 20 mg/mL test substance): did not affect | effect on absorptive (A-B) permeability of taurine (TauT [3]): did not significantly decrease | effect on taurine uptake (TauT [5]; 10 mmol/L test substance): not affected
Structure (SMILES): NC1(C(=O)O)CC2CCC1C2 (stereo not drawn) [BCH, 2‐Amino‐2‐norbornanecarboxylic acid]
effect on taurine plasma concentration versus time profile (AUC0‐tlast, t max, C max) (PAT1 [4]): similar; also recorded: did not have any significant effect | effect on taurine uptake (PAT1 and TauT; 10 mmol/L test substance): not affected | effect on taurine uptake (PAT1 and TauT; 20 mg/mL test substance): did not affect

Structure (SMILES): O=C(O)Cc1c[nH]cn1 [IAA, imidazole‐4‐acetic acid]
effect on taurine uptake (PAT1 [2]; 10 mmol/L test substance): not affected significantly | effect on taurine uptake (TauT [5]; 10 mmol/L test substance): significantly inhibited | taurine uptake (TauT [5]; 10 mmol/L test substance): approximately 10 % of the control uptake | effect on taurine uptake (PAT1 and TauT; 10 mmol/L test substance): significantly inhibited

effect on absorptive (A-B) permeability of taurine (TauT [3]): did not significantly decrease | effect on taurine uptake (TauT [5]; 10 mmol/L test substance): not affected
Structure (SMILES): O=C(O)[C@@H]1CCCN1 [Pro, L‐proline]

effect on absorptive (A-B) permeability of taurine (TauT [3]): did not significantly decrease | effect on taurine uptake (TauT [5]; 10 mmol/L test substance): not affected | effect on taurine uptake (TauT [5]; 20 mg/mL test substance): decreased
Structure (SMILES): CNCC(=O)O [Sar, sarcosine]

V max of saturable taurine uptake (TauT [6]; Caco-2, pH 7.4): 4.6 ± 0.8 pmol/(cm^2·min) | nonsaturable component, B (TauT [6]; Caco-2, pH 7.4): 5.7e-08 ± 8e-09 cm/min | K m of saturable taurine uptake (TauT [6]): 5.6 µM | K m of saturable taurine uptake (TauT [6]; listed as taurine): 5.6 ± 2.6 µM | Tmax ([7]; oral 100 mg/kg): 30 min | Tmax ([7]; oral 299 mg/kg): 30 min | AUC0‐∞/dose ([8]; IV 1 mg/kg): 89 ± 18.9 μg·min/mL pr. mg/kg | K10 ([8]; IV 1 mg/kg): 0.04 ± 0.01 min⁻¹ | V d1 ([8]; IV 1 mg/kg): 0.299 ± 0.048 L/kg | V d2 ([8]; IV 1 mg/kg): 4.608 ± 0.974 L/kg | A ([8]; IV 1 mg/kg): 3.5 ± 0.5 µg/mL | B ([8]; IV 1 mg/kg): 0.12 ± 0.03 µg/mL | α ([8]; IV 1 mg/kg): 0.14 ± 0.02 min⁻¹ | β ([8]; IV 1 mg/kg): 1.9 ± 0.4 1/min *10^−3 | AUC0‐∞/dose ([8]; IV 10 mg/kg): 59 ± 19.0 μg·min/mL pr. mg/kg | K10 ([8]; IV 10 mg/kg): 0.06 ± 0.01 min⁻¹ | V d1 ([8]; IV 10 mg/kg): 0.353 ± 0.062 L/kg | V d2 ([8]; IV 10 mg/kg): 4.662 ± 1.153 L/kg | A ([8]; IV 10 mg/kg): 31.0 ± 4.2 µg/mL | B ([8]; IV 10 mg/kg): 0.89 ± 0.14 µg/mL | α ([8]; IV 10 mg/kg): 0.144 ± 0.03 min⁻¹ | β ([8]; IV 10 mg/kg): 3.0 ± 0.9 1/min *10^−3 | AUC0‐∞/dose ([8]; IV 30 mg/kg): 115 ± 39.2 μg·min/mL pr. mg/kg | K10 ([8]; IV 30 mg/kg): 0.03 ± 0.01 min⁻¹ | V d1 ([8]; IV 30 mg/kg): 0.323 ± 0.063 L/kg | V d2 ([8]; IV 30 mg/kg): 8.374 ± 4.466 L/kg | B ([8]; IV 30 mg/kg): 1.87 ± 0.45 µg/mL | α ([8]; IV 30 mg/kg): 0.07 ± 0.01 min⁻¹ | β ([8]; IV 30 mg/kg): 1.3 ± 0.6 1/min *10^−3 | clearance ([8]; 1 mg/kg, IV 1 mg/kg, read-out: CL): 11.7 ± 1.3 mL/min/kg | clearance ([8]; 10 mg/kg, IV 10 mg/kg, read-out: CL): 18.7 ± 2.54 mL/min/kg | clearance ([8]; 30 mg/kg, IV 30 mg/kg, read-out: CL): 9.4 ± 1.42 mL/min/kg | clearance ([8]; IV 1–30 mg/kg, compartmental analysis, read-out: clearance): 9 to 18 mL/min/kg | AUC(0-inf) ([8]; IV 1 mg/kg): 1.48 µg·h/mL | AUC(0-inf) ([8]; IV 10 mg/kg): 9.78 µg·h/mL | AUC(0-inf) ([8]; IV 30 mg/kg): 57.5 µg·h/mL | TauT share of carrier mediated taurine uptake (TauT [10]): 78% | Cmax [11, 13]: 2 ± 0.2 µg/mL | AUC [11, 13]: 3.55 µg·h/mL | k el [11, 13]: 6.67e-05 s⁻¹ | Cmax [11, 14]: 15.7 ± 2.4 µg/mL | AUC [11, 14]: 18.6 µg·h/mL | k el [11, 14]: 0.000117 s⁻¹ | Cmax [11, 15]: 70 ± 6.5 µg/mL | AUC [11, 15]: 89.9 µg·h/mL | k el [11, 15]: 0.000167 s⁻¹ | Cmax [11, 16]: 228 ± 16 µg/mL | AUC [11, 16]: 307 µg·h/mL | k el [11, 16]: 0.000167 s⁻¹ | Cmax [11, 17]: 643 ± 81 µg/mL | Tmax ([11]; male, Sprague-Dawley, rat, plasma, oral 997 mg/kg, median [Q1, Q3]): 45 min | AUC [11, 17]: 1320 µg·h/mL | k el [11, 17]: 0.00015 s⁻¹ | AUC0‐∞/dose ([11]; oral 10 mg/kg): 21 ± 1.3 μg·min/mL pr. mg/kg | AUC0‐∞/dose ([11]; oral 30 mg/kg): 37 ± 4.5 μg·min/mL pr. mg/kg | AUC0‐∞/dose ([11]; oral 100 mg/kg): 54 ± 6.0 μg·min/mL pr. mg/kg | AUC0‐∞/dose ([11]; oral 299 mg/kg): 62 ± 6.7 μg·min/mL pr. mg/kg | AUC0‐∞/dose ([11]; oral 997 mg/kg): 79 ± 6.7 μg·min/mL pr. mg/kg
Structure (SMILES): NCCS(=O)(=O)O [Taurine, 2‐aminoethane sulfonic acid]
AUC ([9]; oral 30 mg/kg): 236 µg·h/mL | AUC ([9]; oral 300 mg/kg): 1760 µg·h/mL | clearance [12]: 3.33 mL/min/kg
